From the OligoGym collection
After the bases stand the sugars from the 5' end (letter, count) and the backbone: PS all phosphorothioate, else s phosphorothioate and o phosphodiester by linkage. Methylation of C is not given here. k = constrained ethyl (cEt); d = 2'-deoxy (DNA)

Molecular target: MALAT1
Settings: ASO, A431, 0.005 µM

Sequence | target mRNA inhibition [%]
ATAAGCACTTATCCCT (sugars k3 d10 k3, PS) | 50
CAGAAAAAGCTTGTTC (sugars k3 d10 k3, PS) | 37
CACCACCTGGAATGGC (sugars k3 d10 k3, PS) | 8
GTTTTATCTAAATACC (sugars k3 d10 k3, PS) | 29
TTCGGTTTAATCTCTT (sugars k3 d10 k3, PS) | 94
TTAGGATTCTAGACAG (sugars k3 d10 k3, PS) | 43
AACATCTGATTCTAAC (sugars k3 d10 k3, PS) | 27
TAAAAGATCGCCTTCA (sugars k3 d10 k3, PS) | 41
CCCATAACTGATCTGA (sugars k3 d10 k3, PS) | 42
CTCTGATCTGCGGCCC (sugars k3 d10 k3, PS) | -6
CTACTCTTCTAAGTCT (sugars k3 d10 k3, PS) | 49
AATTTTTCTACCGTTT (sugars k3 d10 k3, PS) | 11
AGCTGTCAATTAATGC (sugars k3 d10 k3, PS) | 10
TCCCCCATTATATTAG (sugars k3 d10 k3, PS) | 14
TTAATCATACTCCAGT (sugars k3 d10 k3, PS) | 19
ACATATTTTGCCCCCA (sugars k3 d10 k3, PS) | 19
TAAATGACGCAATTCT (sugars k3 d10 k3, PS) | 8
AACTGATCTGACTTTG (sugars k3 d10 k3, PS) | 34
GCTGAGGCTTCCCGGC (sugars k3 d10 k3, PS) | 15
AAAAGATCGCCTTCAA (sugars k3 d10 k3, PS) | 34
AGTTAATGTCAGCCCA (sugars k3 d10 k3, PS) | 34
AAACGAAACATTGGCA (sugars k3 d10 k3, PS) | 46
ATCACCTTCCGCCGCC (sugars k3 d10 k3, PS) | 15

Sequence | target mRNA inhibition [%]
GAGTTCAAGTGGCCTT (sugars k3 d10 k3, PS) | 17
CAACATATTGCCGACC (sugars k3 d10 k3, PS) | -26
GAAACCAGGAGTGCCA (sugars k3 d10 k3, PS) | 4
CTCAGTCCTAGCTTCA (sugars k3 d10 k3, PS) | 42
AACTGGAAGCTCCTTC (sugars k3 d10 k3, PS) | 17
TCTGTGTTATGCCTGG (sugars k3 d10 k3, PS) | 17
GCTTATGGAACTTGAA (sugars k3 d10 k3, PS) | 10
CTGTGTTATGCCTGGT (sugars k3 d10 k3, PS) | -3
ATATAAGGTCAATAGT (sugars k3 d10 k3, PS) | 16
AACCACTCGCTTTCCC (sugars k3 d10 k3, PS) | 41
TCACTACTCCAAGCAT (sugars k3 d10 k3, PS) | 21
TAACAGGCCACTGCCA (sugars k3 d10 k3, PS) | 11
GAATTAAGACCAAGGG (sugars k3 d10 k3, PS) | 36
ATTACACCAGTCCTTT (sugars k3 d10 k3, PS) | 40
GCATAAAGCTGAAATC (sugars k3 d10 k3, PS) | 4
GTTATGACTCAGAAGA (sugars k3 d10 k3, PS) | 26
ATGCACTGGTACACCC (sugars k3 d10 k3, PS) | 24
CTGTGGTGGTCTGATT (sugars k3 d10 k3, PS) | 33
ACCAGGAGTGCCAACC (sugars k3 d10 k3, PS) | 8
CTACAGACAAACACTA (sugars k3 d10 k3, PS) | 6
CCGCAGGGATTTGAAC (sugars k3 d10 k3, PS) | 2
ACTGAAGAGCATTGGA (sugars k3 d10 k3, PS) | 34
